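All cell lines were grown in 96-well plates and treated with compound for 48 hours. Abbreviation: GI50, concentration required for 50% inhibition of growth.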 Active and inactive are the calls of the source. Rule as the data show it: active = GI50 up to about 1.1 µM and inactive = higher.
Columns and labels:
Assay in all cases: inhibition of tumour cell growth, NCI panel, 48 h
CAKI-1 = tested on: CAKI-1
CCRF-CEM = tested on: CCRF-CEM
COLO 205 = tested on: COLO 205
HCC 2998 = tested on: HCC 2998
HL-60 = tested on: HL-60
IGROV-1 = tested on: IGROV-1
LOX IMVI = tested on: LOX IMVI
M14 = tested on: M14
MDA-MB-231 = tested on: MDA-MB-231
MDA-MB-435 = tested on: MDA-MB-435
OVCAR-3 = tested on: OVCAR-3
OVCAR-4 = tested on: OVCAR-4
OVCAR-8 = tested on: OVCAR-8
SF-295 = tested on: SF-295
SW-620 = tested on: SW-620
T47D = tested on: T47D
U-251 = tested on: U-251
UO-31 = tested on: UO-31
HOP-62 = tested on: HOP-62
NCI-H522 = tested on: NCI-H522

Compound | GI50 (CAKI-1) | GI50 (CCRF-CEM) | GI50 (COLO 205) | GI50 (HCC 2998) | GI50 (HL-60) | GI50 (IGROV-1) | GI50 (LOX IMVI) | GI50 (M14) | GI50 (MDA-MB-231) | GI50 (MDA-MB-435) | GI50 (OVCAR-3) | GI50 (OVCAR-4) | GI50 (OVCAR-8) | GI50 (SF-295) | GI50 (SW-620) | GI50 (T47D) | GI50 (U-251) | GI50 (UO-31) | GI50 (HOP-62) | GI50 (NCI-H522)
C1=C(c2ccccc2)NC2=N[C@H]3CCCC[C@@H]3N2C1c1ccccc1 (stereo partly specified) | 16.1 µM (inactive) | 6.67 µM (inactive) | 11 µM (inactive) | 14.4 µM (inactive) | 10.3 µM (inactive) | 13 µM (inactive) | 15.3 µM (inactive) | 12.9 µM (inactive) | 15.8 µM (inactive) | 13.6 µM (inactive) | 13.1 µM (inactive) | 10.1 µM (inactive) | 13.6 µM (inactive) | 13 µM (inactive) | 13.2 µM (inactive) | 16.4 µM (inactive) | 13.4 µM (inactive) | 12.2 µM (inactive) |  | 
CC12CCC(CC1(Cl)Cl)C2 (stereo unspecified) | > 100 µM (inactive) | > 100 µM (inactive) | > 100 µM (inactive) |  | > 100 µM (inactive) | > 100 µM (inactive) | > 100 µM (inactive) | > 100 µM (inactive) |  | > 100 µM (inactive) | > 100 µM (inactive) | > 100 µM (inactive) | > 100 µM (inactive) | > 100 µM (inactive) | > 100 µM (inactive) | > 100 µM (inactive) | > 100 µM (inactive) | > 100 µM (inactive) | > 100 µM (inactive) | > 100 µM (inactive)
CCOc1cc2c(cc1O)CC[C@@H]1[C@@H]2CC[C@]2(C)C(OS(=O)OC3CC[C@@H]4[C@H]5CCc6cc(O)c(OCC)cc6[C@@H]5CC[C@@]34C)CC[C@@H]12 (stereo partly specified) | 2.45 µM (inactive) | 0.466 µM (active) | 23.1 µM (inactive) | 16 µM (inactive) | 0.173 µM (active) | 4.52 µM (inactive) | 0.752 µM (active) | 0.592 µM (active) | 4.06 µM (inactive) | 0.0601 µM (active) | 0.313 µM (active) | 9.2 µM (inactive) | 1.38 µM (inactive) | 0.982 µM (active) | 0.355 µM (active) | 5.66 µM (inactive) | 0.33 µM (active) | 5.48 µM (inactive) | 0.887 µM (active) | 
CCCCCCCCCCC(O)[C@H]1CCC(C2CC[C@H]([C@H](O)CCCCCCCCCCC(O)CC3=CC(C)OC3=O)O2)O1 (stereo partly specified) | 2.18 µM (inactive) | 1.94 µM (inactive) | 1.48 µM (inactive) | 3.59 µM (inactive) | 1.77 µM (inactive) | 1.66 µM (inactive) | 1.38 µM (inactive) | 1.69 µM (inactive) | 1.61 µM (inactive) |  | 1.71 µM (inactive) | 2.75 µM (inactive) | 1.48 µM (inactive) | 0.214 µM (active) | 1.87 µM (inactive) | 2.23 µM (inactive) | 3.03 µM (inactive) | 1.15 µM (inactive) | 1.97 µM (inactive) | 1.46 µM (inactive)
O=c1[nH]c(Nc2nc3ccccc3[nH]2)nc(O)c1-c1ccccc1 | > 100 µM (inactive) | > 100 µM (inactive) | > 100 µM (inactive) | > 100 µM (inactive) |  | > 100 µM (inactive) | > 100 µM (inactive) | > 100 µM (inactive) | > 100 µM (inactive) | > 100 µM (inactive) | > 100 µM (inactive) | > 100 µM (inactive) | > 100 µM (inactive) | > 100 µM (inactive) | > 100 µM (inactive) |  | 82.2 µM (inactive) | > 100 µM (inactive) | > 100 µM (inactive) | > 100 µM (inactive)
COc1ccc(C2=NN=C3C(c4ccccc4)=Nc4ccccc4N3C2)cc1 |  | 2.16 µM (inactive) | 15.3 µM (inactive) | 46.8 µM (inactive) | 7.55 µM (inactive) | 29.4 µM (inactive) | 16.9 µM (inactive) | 15.5 µM (inactive) | 27.5 µM (inactive) | 27.2 µM (inactive) | 3.06 µM (inactive) | 6.49 µM (inactive) |  |  | 14.9 µM (inactive) |  | 14.5 µM (inactive) | 6.46 µM (inactive) | 14.8 µM (inactive) | 
CCOC(=O)CCC(NC(=O)c1ccc(CNc2nc3ccccc3nc2C(=O)OCC)cc1)C(=O)OCC (stereo unspecified) |  | > 100 µM (inactive) | > 100 µM (inactive) |  |  | 43.7 µM (inactive) | > 100 µM (inactive) | > 100 µM (inactive) | 24.9 µM (inactive) | 3.01 µM (inactive) | 78.7 µM (inactive) |  | > 100 µM (inactive) | > 100 µM (inactive) | > 100 µM (inactive) |  | 21.8 µM (inactive) | 44.1 µM (inactive) | > 100 µM (inactive) | > 100 µM (inactive)
CCOC(=O)c1cn2c(n1)sc1cc(OC)ccc12 | 13.5 µM (inactive) |  | 3.4 µM (inactive) | 31 µM (inactive) |  | 26.7 µM (inactive) | 18.2 µM (inactive) | 5.28 µM (inactive) | 37.3 µM (inactive) | 1.18 µM (inactive) | 3.85 µM (inactive) | > 100 µM (inactive) | 6.21 µM (inactive) | 7.18 µM (inactive) | 3.08 µM (inactive) |  | 2.81 µM (inactive) | 10.9 µM (inactive) | 13 µM (inactive) | 18 µM (inactive)
CC(C)[C@@H](C)[C@@]1(C)C[C@@H]1[C@@H](C)[C@H]1CC[C@@H]([C@@H]2CC=C3C[C@@H](O)CC[C@]3(C)C2=O)[C@]1(C)CCO | 12.8 µM (inactive) |  | 11.9 µM (inactive) | 4.2 µM (inactive) | 2.11 µM (inactive) | 15.6 µM (inactive) | 4.57 µM (inactive) |  | 14.8 µM (inactive) | 11.9 µM (inactive) | 12.8 µM (inactive) | 12.1 µM (inactive) | 12.7 µM (inactive) | 9.2 µM (inactive) | 7.55 µM (inactive) |  | 11 µM (inactive) | 15.2 µM (inactive) | 17.3 µM (inactive) | 6.9 µM (inactive)
CC(C)(C)OC(=O)N1CC(C)(C)N2C(=O)C3(CCCO3)C12 (stereo unspecified) | > 100 µM (inactive) | 67.1 µM (inactive) | > 100 µM (inactive) | > 100 µM (inactive) | > 100 µM (inactive) | > 100 µM (inactive) | > 100 µM (inactive) | > 100 µM (inactive) |  |  | > 100 µM (inactive) | > 100 µM (inactive) | > 100 µM (inactive) | > 100 µM (inactive) | 14.9 µM (inactive) |  | 45.3 µM (inactive) | > 100 µM (inactive) | > 100 µM (inactive) | > 100 µM (inactive)
O=c1c2cc(S(=O)(=O)O)ccc2nc(COc2ccc(Oc3ccc(Cl)cc3Cl)cc2)n1C(=S)Nc1ccc(Cl)cc1 | 27.9 µM (inactive) | 34.7 µM (inactive) | 18 µM (inactive) |  | 0.457 µM (active) | 28.3 µM (inactive) | 16.6 µM (inactive) | 20.2 µM (inactive) |  | 18.6 µM (inactive) | 21.5 µM (inactive) | 23.9 µM (inactive) | 21.6 µM (inactive) | 19.9 µM (inactive) | 20.9 µM (inactive) | 34.6 µM (inactive) | 17.2 µM (inactive) | 15.8 µM (inactive) | 20.5 µM (inactive) | 17.6 µM (inactive)
COc1ccc2[nH]c3c(c2c1)CC(=S)N1CCCC(CC3=O)C1 (stereo unspecified) | 91 µM (inactive) | 50.2 µM (inactive) | 31.3 µM (inactive) | 35.6 µM (inactive) |  | 64.4 µM (inactive) |  | 45.9 µM (inactive) | 50.2 µM (inactive) | 46.3 µM (inactive) | 45.8 µM (inactive) | 58.3 µM (inactive) | 93.3 µM (inactive) | 39.7 µM (inactive) | 52.7 µM (inactive) | 48.9 µM (inactive) | 33.3 µM (inactive) | 63.8 µM (inactive) | 87.3 µM (inactive) | 
CCCCCCNc1n[nH]c(=O)c2c1nnn2Cc1ccccc1 | > 100 µM (inactive) | > 100 µM (inactive) | > 100 µM (inactive) | > 100 µM (inactive) | > 100 µM (inactive) |  | > 100 µM (inactive) | > 100 µM (inactive) | > 100 µM (inactive) | > 100 µM (inactive) | > 100 µM (inactive) | > 100 µM (inactive) | > 100 µM (inactive) | > 100 µM (inactive) |  |  | > 100 µM (inactive) | > 100 µM (inactive) | > 100 µM (inactive) | 
N#CC(C#N)=c1c(=O)c2c3ccccc3cc3cccc1c32 | > 100 µM (inactive) | > 100 µM (inactive) | > 100 µM (inactive) | > 100 µM (inactive) | 68.1 µM (inactive) | 40.6 µM (inactive) | > 100 µM (inactive) | > 100 µM (inactive) | > 100 µM (inactive) | > 100 µM (inactive) | > 100 µM (inactive) | > 100 µM (inactive) |  |  | > 100 µM (inactive) | > 100 µM (inactive) | > 100 µM (inactive) |  | 29 µM (inactive) | 
Cc1ccccc1NC(=O)Cc1csc(N/N=C2\C(=O)Nc3ccccc32)n1 | 19.9 µM (inactive) | 46 µM (inactive) | > 100 µM (inactive) |  | 22.3 µM (inactive) | 33.9 µM (inactive) | 64.1 µM (inactive) | 50 µM (inactive) | 29.7 µM (inactive) | 1 µM (active) |  | 21.8 µM (inactive) | 16.6 µM (inactive) | 16.7 µM (inactive) | 1 µM (active) |  | 1 µM (active) | 40.8 µM (inactive) |  | 17.7 µM (inactive)
CCCCC(=O)Nc1ccc2c(C)cc(-c3ccc(-c4cc(-c5ccc(C)cc5)cc(-c5ccc(-c6cc(C)c7ccc(NC(=O)CCCC)nc7n6)cc5)n4)cc3)nc2n1 | > 100 µM (inactive) | > 100 µM (inactive) | > 100 µM (inactive) | > 100 µM (inactive) |  |  |  | > 100 µM (inactive) | > 100 µM (inactive) | > 100 µM (inactive) | > 100 µM (inactive) | > 100 µM (inactive) |  | > 100 µM (inactive) |  | > 100 µM (inactive) | > 100 µM (inactive) | > 100 µM (inactive) | > 100 µM (inactive) | > 100 µM (inactive)

— ChEMBL document CHEMBL1201862, “PubChem BioAssay data set” (2004)
